Test results from the supplement of paper PMC10307832.

Tests used:
Experiment in all cases: relative viability (nuclei count vs DMSO), 5 days (fraction); higher = more cells survive
Everolimus + Palbociclib = compound: CO[C@H]1C[C@@H]2CC[C@@H](C)[C@@](O)(O2)C(=O)C(=O)N2CCCC[C@H]2C(=O)O[C@H]([C@H](C)C[C@@H]2CC[C@@H](OCCO)[C@H](OC)C2)CC(=O)[C@H](C)/C=C(\C)[C@@H](O)[C@@H](OC)C(=O)[C@H](C)C[C@H](C)/C=C/C=C/C=C/1C [Everolimus] + CC(=O)c1c(C)c2cnc(Nc3ccc(N4CCNCC4)cn3)nc2n(C2CCCC2)c1=O [Palbociclib] (partner 0.5 µM)
Method in brief: (§1)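 After 5 days of treatment, lung cancer cells in 1536-well plates were fixed and stained in a single step (final 0.05% Triton X-100, 1% formaldehyde, 1 ug/ml Hoechst) and their nuclei counted on 4× images. Treatment had been applied by pin tool the day after seeding as one drug alone or as a fixed anchor-drug dose with five library-drug doses (not always all listed) in √10 steps. Relative viability is the nuclei count of treated wells divided by that of vehicle wells, and values are medians of duplicate plates.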

Everolimus + Pictilisib = compound: CO[C@H]1C[C@@H]2CC[C@@H](C)[C@@](O)(O2)C(=O)C(=O)N2CCCC[C@H]2C(=O)O[C@H]([C@H](C)C[C@@H]2CC[C@@H](OCCO)[C@H](OC)C2)CC(=O)[C@H](C)/C=C(\C)[C@@H](O)[C@@H](OC)C(=O)[C@H](C)C[C@H](C)/C=C/C=C/C=C/1C [Everolimus] + CS(=O)(=O)N1CCN(Cc2cc3nc(-c4cccc5[nH]ncc45)nc(N4CCOCC4)c3s2)CC1 [Pictilisib] (partner 1 µM)
Method in brief: as §1

Everolimus + Phenformin = compound: CO[C@H]1C[C@@H]2CC[C@@H](C)[C@@](O)(O2)C(=O)C(=O)N2CCCC[C@H]2C(=O)O[C@H]([C@H](C)C[C@@H]2CC[C@@H](OCCO)[C@H](OC)C2)CC(=O)[C@H](C)/C=C(\C)[C@@H](O)[C@@H](OC)C(=O)[C@H](C)C[C@H](C)/C=C/C=C/C=C/1C [Everolimus] + N=C(N)NC(=N)NCCc1ccccc1 [Phenformin] (partner 250 µM)
Method in brief: as §1

Everolimus + Decitabine = compound: CO[C@H]1C[C@@H]2CC[C@@H](C)[C@@](O)(O2)C(=O)C(=O)N2CCCC[C@H]2C(=O)O[C@H]([C@H](C)C[C@@H]2CC[C@@H](OCCO)[C@H](OC)C2)CC(=O)[C@H](C)/C=C(\C)[C@@H](O)[C@@H](OC)C(=O)[C@H](C)C[C@H](C)/C=C/C=C/C=C/1C [Everolimus] + Nc1ncn([C@H]2C[C@H](O)[C@@H](CO)O2)c(=O)n1 [Decitabine] (partner 2 µM)
Method in brief: as §1

| Cell Line | relative viability (Everolimus + Palbociclib; first compound 0.01 µM) | relative viability (Everolimus + Palbociclib; first compound 0.03162 µM) | relative viability (Everolimus + Palbociclib; first compound 0.1 µM) | relative viability (Everolimus + Palbociclib; first compound 0.3162 µM) | relative viability (Everolimus + Palbociclib; first compound 1 µM) | relative viability (Everolimus + Pictilisib; first compound 0.01 µM) | relative viability (Everolimus + Pictilisib; first compound 0.03162 µM) | relative viability (Everolimus + Pictilisib; first compound 0.1 µM) | relative viability (Everolimus + Pictilisib; first compound 0.3162 µM) | relative viability (Everolimus + Pictilisib; first compound 1 µM) | relative viability (Everolimus + Phenformin; first compound 0.01 µM) | relative viability (Everolimus + Phenformin; first compound 0.03162 µM) | relative viability (Everolimus + Phenformin; first compound 0.1 µM) | relative viability (Everolimus + Phenformin; first compound 0.3162 µM) | relative viability (Everolimus + Phenformin; first compound 1 µM) | relative viability (Everolimus + Decitabine; first compound 0.01 µM) | relative viability (Everolimus + Decitabine; first compound 0.03162 µM) | relative viability (Everolimus + Decitabine; first compound 0.1 µM) | relative viability (Everolimus + Decitabine; first compound 0.3162 µM) | relative viability (Everolimus + Decitabine; first compound 1 µM) |
| --- | --- | --- | --- | --- | --- | --- | --- | --- | --- | --- | --- | --- | --- | --- | --- | --- | --- | --- | --- | --- |
| NCI-H1993 | 0.495 | 0.436 | 0.489 | 0.493 | 0.408 | 0.793 | 0.739 | 0.715 | 0.786 | 0.86 | 0.525 | 0.498 | 0.533 | 0.468 | 0.454 | 0.468 | 0.542 | 0.433 | 0.46 | 0.447 |
| NCI-H838 | 0.144 | 0.146 | 0.159 | 0.174 | 0.123 | 0.222 | 0.219 | 0.247 | 0.208 | 0.262 | 0.331 | 0.355 | 0.267 | 0.313 | 0.363 | 0.435 | 0.444 | 0.356 | 0.384 | 0.392 |
| NCI-H1437 | 0.319 | 0.313 | 0.253 | 0.239 | 0.248 | 0.159 | 0.149 | 0.135 | 0.165 | 0.18 | 0.557 | 0.282 | 0.293 | 0.299 | 0.29 | 0.597 | 0.483 | 0.59 | 0.461 | 0.466 |
| NCI-H2170 | 0.195 | 0.187 | 0.162 | 0.16 | 0.186 | 0.229 | 0.234 | 0.159 | 0.214 | 0.198 | 0.388 | 0.402 | 0.387 | 0.403 | 0.414 | 0.287 | 0.274 | 0.257 | 0.28 | 0.262 |
| LCLC-103H | 0.511 | 0.49 | 0.465 | 0.453 | 0.546 | 0.512 | 0.459 | 0.471 | 0.479 | 0.466 | 0.309 | 0.274 | 0.294 | 0.309 | 0.331 | 0.682 | 0.682 | 0.633 | 0.58 | 0.653 |
| NCI-H441 | 0.204 | 0.188 | 0.153 | 0.222 | 0.207 | 0.272 | 0.358 | 0.296 | 0.282 | 0.331 | 0.798 | 0.605 | 0.585 | 0.772 | 0.666 | 0.257 | 0.243 | 0.194 | 0.261 | 0.29 |
| SK-LU-1 | 0.444 | 0.342 | 0.303 | 0.318 | 0.298 | 0.296 | 0.307 | 0.289 | 0.341 | 0.345 | 0.306 | 0.323 | 0.291 | 0.369 | 0.342 | 0.411 | 0.474 | 0.474 | 0.516 | 0.524 |
| BEN | 0.442 | 0.421 | 0.443 | 0.438 | 0.463 | 0.312 | 0.281 | 0.254 | 0.295 | 0.336 | 0.289 | 0.249 | 0.273 | 0.24 | 0.26 | 0.574 | 0.412 | 0.546 | 0.442 | 0.583 |
| LC-2-ad | 0.543 | 0.572 | 0.564 | 0.561 | 0.475 | 0.456 | 0.372 | 0.386 | 0.282 | 0.283 | 0.54 | 0.502 | 0.54 | 0.516 | 0.491 | 0.846 | 0.779 | 0.888 | 0.819 | 0.726 |
| COR-L23 | 0.224 | 0.27 | 0.233 | 0.271 | 0.218 | 0.354 | 0.409 | 0.378 | 0.366 | 0.483 | 0.368 | 0.413 | 0.395 | 0.421 | 0.424 | 0.312 | 0.308 | 0.325 | 0.369 | 0.323 |
| NCI-H1650 | 0.305 | 0.293 | 0.304 | 0.278 | 0.238 | 0.47 | 0.473 | 0.477 | 0.515 | 0.469 | 0.36 | 0.372 | 0.46 | 0.392 | 0.417 | 0.472 | 0.389 | 0.556 | 0.406 | 0.573 |
| RERF-LC-KJ | 0.88 | 0.674 | 0.644 | 0.588 | 0.511 | 0.345 | 0.445 | 0.214 | 0.409 | 0.238 | 0.377 | 0.426 | 0.377 | 0.381 | 0.376 | 0.535 | 0.594 | 0.552 | 0.541 | 0.45 |
| NCI-H1915 | 0.398 | 0.347 | 0.316 | 0.378 | 0.334 | 0.622 | 0.33 | 0.493 | 0.625 | 0.555 | 0.384 | 0.372 | 0.34 | 0.349 | 0.432 | 0.25 | 0.234 | 0.238 | 0.273 | 0.263 |
| NCI-H2009 | 0.105 | 0.109 | 0.103 | 0.127 | 0.108 | 0.565 | 0.591 | 0.394 | 0.673 | 0.504 | 0.427 | 0.464 | 0.421 | 0.451 | 0.402 | 0.295 | 0.313 | 0.382 | 0.288 | 0.377 |
